{"source": "paper PMC8895129", "about": "“Pseudomonas aeruginosa Biofilm Dispersion by the Human Atrial Natriuretic Peptide” (Advanced Science, 2022)", "key": {"[1]": {"test_system": "human Ether-a-go-go Related Gene (hERG) channel"}, "AmiC [2]": {"target": "T1, AmiC (Pseudomonas aeruginosa, UniProt P27017)", "T1 sequence (P27017 whole entry)": "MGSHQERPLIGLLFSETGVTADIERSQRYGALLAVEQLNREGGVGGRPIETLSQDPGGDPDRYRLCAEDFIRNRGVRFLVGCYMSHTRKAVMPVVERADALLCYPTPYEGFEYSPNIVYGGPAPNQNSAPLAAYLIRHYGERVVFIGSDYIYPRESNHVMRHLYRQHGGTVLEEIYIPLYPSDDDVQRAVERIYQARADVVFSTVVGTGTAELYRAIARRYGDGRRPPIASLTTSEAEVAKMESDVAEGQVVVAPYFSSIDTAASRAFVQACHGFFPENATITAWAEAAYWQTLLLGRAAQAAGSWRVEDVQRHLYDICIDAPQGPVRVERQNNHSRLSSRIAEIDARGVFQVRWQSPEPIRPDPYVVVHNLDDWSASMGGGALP", "experiment": "biochemical", "protocol": "Briefly, AmiC protein was labeled using the RED‐NHS labeling kit (NanoTemper Technologies). The labeling reaction was performed according to the manufacturer's instructions in the supplied labeling buffer using a 20 × 10^−6 M protein concentration and a molar dye:protein ratio ≈2:1, at RT for 30 min. […] The label:protein ratio was determined using photometry at 650 and 280 nm. Typically, a ratio of 0.8 was achieved.\nFor thermophoresis, each ligand dilution was mixed with one volume of AmiC, which led to a final concentration of AmiC of 50 × 10^−9 M and final ligand concentrations at half of the ranges above. Instrument parameters were adjusted with 50% light‐emitting diode power and 20% MST power. Data of three independently pipetted measurements were analyzed (NT.Analysis software version 1.5.41, NanoTemper Technologies) using the signal from Thermophoresis + T‐Jump."}, "[3]": {"test_system": "P. aeruginosa PA14 established biofilm", "experiment": "Dispersion of 24 h established biofilm in flow cell, CLSM/COMSTAT", "assay_type": "cell-based, Pseudomonas aeruginosa", "conditions": "mean ± SEM; for biofilm biovolumes reduction: 37 °C", "description": "For biofilm dispersion experiments, overnight cultures of P. aeruginosa strains were performed in LB medium at 37 °C for 18 h with shaking (180 rpm). Bacterial cells were then washed and adjusted to OD580 = 0.1 in 0.9% w/v NaCl. The bacterial suspensions were then used to form a biofilm for 24 h under hydrodynamic conditions at 37 °C. Briefly, each channel of the flow cell was inoculated with 300 µL of bacterial suspension. A 2 h attachment step was performed without flow. After 2 h, each channel was then pumped with a 2.5 mL h^–1 flow rate of LB medium during 24 h. Next, the 24 h old biofilm of P. aeruginosa was exposed for 2 h (or 30 min) to 300 µL of studied compounds (i.e., peptides, antibiotics, or a combination of peptide + antibiotics) or 300 µL of ultra‐pure distilled water (control condition), added to each channel of the flow cell and without flow. Prior to image acquisition, biofilm cultures were then rinsed with LB medium using 2.5 mL h^–1 flow rate for 15 min. Finally, biofilm cells were stained and then observed by CLSM.\nThe CLSM observations of biofilms were performed using a Zeiss LSM710 microscope (Carl Zeiss Microscopy, Oberkochen, Germany) using a x40 oil immersion objective. Bacteria into the biofilm were stained with 5 × 10^−6 M of SYTO9 green‐fluorescent dye (Invitrogen, Carlsbad, CA). Biofilm matrix components were stained using fluorescent dyes. To assess the eDNA relative abundance, 1 × 10^−6 M of DDAO (Invitrogen, Carlsbad, CA) was used. The polysaccharides β1‐3 and β1‐4 were labeled with CalcoFluor White M2R at 200 µg mL^−1 (Sigma‐Aldrich, USA). eDNA and polysaccharides values were normalized to biofilms’ biomass. The Live/Dead BacLight kit (Invitrogen, Carlsbad, CA) was used to examine bacterial viability in biofilms according to manufacturer instructions. Images were taken every micrometer throughout the whole biofilm depth. For visualization and processing of 3D image, the Zen 2.1 SP1 software (Carl Zeiss Microscopy, Oberkochen, Germany) was used. Quantitative analyses of images stacks were performed using the COMSTAT software (http://www.imageanalysis.dk/).^[ [77] ^] At least three image stacks from at least three independent experiments were used for each analysis."}, "AmiC [4]": {"target": "T1, AmiC", "set-up": "made in house", "conditions": "cited from earlier work", "from_the_text": "[…]; see 2.0 ± 0.3 × 10^−6 M for hCNP^[ [44] ^]). This is consistent with the van der Waals and hydrog ..."}}, "note": "Read-outs that look alike come from different tables or passages of the source."}
{"compound": "CC[C@H](C)[C@@H]1NC(=O)[C@H](CCCNC(=N)N)NC(=O)[C@H](CC(=O)O)NC(=O)[C@H](CCSC)NC(=O)[C@H](CCCNC(=N)N)NC(=O)CNC(=O)CNC(=O)[C@H](Cc2ccccc2)NC(=O)[C@@H](NC(=O)[C@H](CO)NC(=O)[C@H](CO)NC(=O)[C@H](CCCNC(=N)N)NC(=O)[C@H](CCCNC(=N)N)NC(=O)[C@H](CC(C)C)NC(=O)[C@@H](N)CO)CSSC[C@@H](C(=O)N[C@@H](CC(N)=O)C(=O)N[C@@H](CO)C(=O)N[C@@H](Cc2ccccc2)C(=O)N[C@@H](CCCNC(=N)N)C(=O)N[C@@H](Cc2ccc(O)cc2)C(=O)O)NC(=O)CNC(=O)[C@H](CC(C)C)NC(=O)CNC(=O)[C@H](CO)NC(=O)[C@H](CCC(N)=O)NC(=O)[C@H](C)NC(=O)CNC1=O", "note": "[hANP, human Atrial Natriuretic Peptide]", "values": [{"measurement": "hERG cardiac channel conductance", "setting": "[1]", "result": "did not modify"}, {"measurement": "Kd", "setting": "AmiC [2]", "result": "5 ± 3", "unit": "µM"}]}
{"compound": "C[C@@H](O)[C@H]1C(=O)N2C(C(=O)O)=C(SCCN=CN)C[C@H]12", "note": "[imipenem]", "values": [{"measurement": "biofilm reduction", "setting": "[3]; imipenem 0.5 µg mL^−1, 2 h, n = 5", "result": "69.8 ± 3.0", "unit": "%"}]}
{"compound": "Brain Natriuretic Peptide [hBNP]", "values": [{"measurement": "affinity for AmiC", "setting": "AmiC [4]", "result": "no affinity"}]}
{"compound": "polymyxin B", "values": [{"measurement": "biovolume reduction", "setting": "[3]; polymyxin B 4 µg mL^−1, 2 h, n = 5", "result": "70.0 ± 4.3", "unit": "%"}]}
{"compound": "NC[C@H]1O[C@H](O[C@H]2[C@H](O)[C@@H](O[C@H]3O[C@H](CO)[C@@H](O)[C@H](N)[C@H]3O)[C@H](N)C[C@@H]2N)[C@H](N)C[C@@H]1O", "note": "[tobramycin]", "values": [{"measurement": "biofilm biovolumes reduction", "setting": "[3]; tobramycin 10 µg mL^−1, 2 h, n = 3", "result": "79.0 ± 4.0", "unit": "%"}, {"measurement": "biofilm biovolumes reduction", "setting": "[3]; tobramycin 50 µg mL^−1, 2 h, n = 4", "result": "76.6 ± 4.0", "unit": "%"}]}
{"compound": "C‐type Natriuretic Peptide [hCNP]", "values": [{"measurement": "Kd", "setting": "AmiC [4]; microscale thermophoresis, read-out: K D, binding to AmiC", "result": "2 ± 0.3", "unit": "µM"}]}
